From ChEMBL document CHEMBL5252563, “Structure-activity relationship studies of anti-bunyaviral cap-dependent endonuclease inhibitors” (Bioorg Med Chem Lett, 2023)
pEC50: −log10 of the molar value.

Tests used:
[1] = tested on: Junin virus; test: Antiviral activity against Junin virus; assay type: functional, organism-based; conditions: Mammarenavirus juninense
[2] = tested on: Mammarenavirus choriomeningitidis; test: Antiviral activity against Lymphocytic choriomeningitis virus; assay type: functional, organism-based
[3] = Metabolic stability in human liver microsomes; assay type: ADME, Microsome
[4] = Metabolic stability in rat liver microsomes; assay type: ADME, Microsome
[5] = Bioavailability in rat at 2 umol/kg, po or 1 umol/kg, iv administered as cassette dose; assay type: ADME, organism-based; conditions: in vivo, at 2 µmol/kg
[6] = AUC in rat at 1 umol/kg, iv administered as cassette dose; assay type: ADME, organism-based; set-up: dose 1 µmol/kg, route iv; conditions: in vivo
[7] = Elimination half-life in rat at 2 umol/kg, po or 1 umol/kg, iv administered as cassette dose; assay type: ADME, organism-based; conditions: in vivo, dose 2 µmol/kg, read-out: LambdaZ (converted)
[8] = Unbound fraction in rat serum at 2 umol/kg, po or 1 umol/kg, iv administered as cassette dose; assay type: ADME, organism-based; conditions: at 2 µmol/kg
[9] = tested on: Mammarenavirus choriomeningitidis; test: Potency index, ratio of ribavirin EC50 to test compound EC50 for antiviral activity against Lymphocytic choriomeningitis virus; assay type: functional
[10] = tested on: Junin virus; test: Potency index, ratio of ribavirin EC50 to test compound EC50 for antiviral activity against Junin virus; assay type: functional, Mammarenavirus juninense

COCCN1CN(C2c3ccccc3CCc3ccccc32)n2cc(C(=O)O)c(=O)c(O)c2C1=O
pEC50 [1]: 8.30 | pEC50 [2]: 8.28

Cc1ccc2c(c1)C(N1CN(C(C)C)C(=O)c3c(O)c(=O)c(C(=O)O)cn31)c1cc(C)ccc1CC2
pEC50 [1]: 6.75 | pEC50 [2]: 7.00

CCN(CC)CCN1CN(C2c3ccccc3CCc3ccccc32)n2cc(C(=O)O)c(=O)c(O)c2C1=O
pEC50 [1]: < 6.00 | pEC50 [2]: < 6.00

CC(C)N1CN(Cc2ccccc2-c2ccccc2)n2cc(C(=O)O)c(=O)c(O)c2C1=O
pEC50 [1]: 6.36 | pEC50 [2]: 6.30

O=C(Nc1nnn[nH]1)c1cn2c(c(O)c1=O)C(=O)N(CC1CC1)CN2C1c2ccccc2CCc2ccccc21
pEC50 [1]: 6.39 | pEC50 [2]: 6.55

O=C(NO)c1cn2c(c(O)c1=O)C(=O)N(CC1CC1)CN2C1c2ccccc2CCc2ccccc21
pEC50 [1]: 6.92 | pEC50 [2]: 6.96

O=C(O)c1cn2c(c(O)c1=O)C(=O)N(CC1CCCC1)CN2C1c2ccccc2CCc2ccccc21
pEC50 [1]: 7.60 | pEC50 [2]: 7.77

Cc1cccc2c1CCc1c(C)cccc1C2N1CN(C(C)C)C(=O)c2c(O)c(=O)c(C(=O)O)cn21
pEC50 [1]: 8.51 | pEC50 [2]: 8.77

CCN1CN(C2c3ccccc3CCc3ccccc32)n2cc(C(=O)O)c(=O)c(O)c2C1=O
pEC50 [1]: 8.48 | pEC50 [2]: 8.21

CC(C)N1CN(C2c3ccccc3CCc3ccccc32)n2cc(C(=O)O)c(=O)c(O)c2C1=O
pEC50 [1]: 8.62 | pEC50 [2]: 8.35 | Stability [3]: 107% | Stability [4]: 81.8% | bioavailability [5]: 10.1% | AUC [6]: 928 nM·h | half-life [7]: 2 h | fraction unbound [8]: 0.00293 | Ratio EC50 [9]: 1000 | Ratio EC50 [10]: 1000

CC(C)N1CN(C2c3ccccc3CSc3ccccc32)n2cc(C(=O)O)c(=O)c(O)c2C1=O (stereo not drawn)
pEC50 [1]: 8.44 | pEC50 [2]: 8.10 | Ratio EC50 [9]: 1000 | Ratio EC50 [10]: 1000

COC(=O)c1cn2c(c(O)c1=O)C(=O)N(CC1CC1)CN2C1c2ccccc2CCc2ccccc21
pEC50 [1]: 6.57 | pEC50 [2]: 6.52

O=C(O)c1cn2c(c(O)c1=O)C(=O)N(C1CC1)CN2C1c2ccccc2CCc2ccccc21
pEC50 [1]: 7.87 | pEC50 [2]: 8.11

O=C(O)c1cn2c(c(O)c1=O)C(=O)N(CC1CC1)CN2C1c2ccccc2CCc2ccccc21
pEC50 [1]: 8.24 | pEC50 [2]: 8.39 | Stability [3]: 100% | Stability [4]: 95.3% | bioavailability [5]: 8.2% | AUC [6]: 1470 nM·h | half-life [7]: 1.5 h | fraction unbound [8]: 0.0136

CN1CN(C2c3ccccc3CCc3ccccc32)n2cc(C(=O)O)c(=O)c(O)c2C1=O
pEC50 [1]: 8.04 | pEC50 [2]: 7.62

O=C(O)c1cn2c(c(O)c1=O)C(=O)N(CC1CCCCC1)CN2C1c2ccccc2CCc2ccccc21
pEC50 [1]: 7.70 | pEC50 [2]: 7.82

Cc1ccc2c(c1)CCc1cc(C)ccc1C2N1CN(C(C)C)C(=O)c2c(O)c(=O)c(C(=O)O)cn21
pEC50 [1]: 7.47 | pEC50 [2]: 7.89

O=C1c2c(O)c(=O)c(-c3noc(=O)[nH]3)cn2N(C2c3ccccc3CCc3ccccc32)CN1CC1CC1
pEC50 [1]: 6.72 | pEC50 [2]: 6.92

O=C1c2c(O)c(=O)c(-c3nnn[nH]3)cn2N(C2c3ccccc3CCc3ccccc32)CN1CC1CC1
pEC50 [1]: < 6.00 | pEC50 [2]: 6.90

CC(C)N1CN(Cc2ccccc2)n2cc(C(=O)O)c(=O)c(O)c2C1=O
pEC50 [1]: < 6.00 | pEC50 [2]: < 6.00

NC(=O)c1ncn([C@@H]2O[C@H](CO)[C@@H](O)[C@H]2O)n1 [RIBAVIRIN]
pEC50 [1]: 5.60 | pEC50 [2]: 5.46
